Consider 7 compounds from publication PMC8316002, “Inhibition of Escherichia coli Lipoprotein Diacylglyceryl Transferase Is Insensitive to Resistance Caused by Deletion of Braun’s Lipoprotein” (Journal of Bacteriology, 2021).

In assay [1] the test system is WT CFT073. The experiment in a line: MIC assay, WT CFT073 (Table 1). The class given is cell-based, E. coli. The conditions noted are these: average of two independent experiments, each in duplicates, CLSI. The method, then: (§1) Unless stated otherwise, E. coli cells were grown in Luria-Bertani (LB) medium (0.5% yeast extract, 1% tryptone, 0.5% NaCl) at 37°C. Where indicated, kanamycin (Kan) was added to culture media at a 50-μg/ml final concentration. MIC assays were performed based on Clinical and Laboratory Standards Institute (CLSI) guidelines. For in vitro growth curves, overnight cultures of WT CFT073, CFT073 Δlgt, and CFT073 Δlgt complemented with lgt from E. coli (lgt^Ec) or P. aeruginosa (lgt^Pa) were grown to mid-exponential phase (optical density at 600 nm [OD600] of 0.6) and then diluted to an OD600 of 0.1 to initiate growth curves. At various times, culture aliquots were diluted and plated in dilutions on LB+Kan agar, and CFU were enumerated in duplicates. Growth of MG1655 inducible deletion strains was measured by culturing in the presence of 2-fold dilutions of arabinose (starting arabinose concentrations for CFT073 and MG1655 inducible deletion strains were 4% and 0.8%, respectively). While […] was sufficient for WT growth of MG1655 Δlgt, 4% arabinose was used for CFT073 Δlgt based on comparing its growth to that of WT CFT073 as measured by CFU. OD600 growth measurements were performed using an EnVision 2101 multilabel reader plate reader (PerkinElmer) linked with Echo liquid handler (Labcyte). For time-kill experiments, bacteria were harvested in mid-exponential phase and treated with 12.5 μM G2824, 3.2 μM globomycin, and 1.6 μM vancomycin. CFU were enumerated at various times posttreatment. Bacterial culture medium containing 2% arabinose was used to induce lpp or lppΔK expression from pBad24 plasmids. Bacterial viability at different time points during the treatment was measured by enumerating CFU. Serum killing assays were carried out as previously described ([17]).

The test system of assay [2] is CFT073 Δlgt. The experiment in a line: MIC assay, CFT073 Δlgt, Lgt 0.25% Ara. The class given is cell-based, E. coli. The method, then: as §1
The subject of assay [3] is CFT073 Δlgt. The assay is described as follows: MIC assay, CFT073 Δlgt, Lgt 4% Ara. The class given is cell-based, E. coli. The settings on record: Escherichia coli. As for the experimental part: as §1
Assay [4] relates to BW25113 cells, lgt gRNA. The experiment in a line: CRISPRi knockdown sensitization, lgt gRNA. The class given is cell-based, E. coli. The settings on record: 2 μM G2824, 0.05 μM globomycin or 0.016 μM ciprofloxacin; OD600 relative to untreated, versus scr or folA gRNA. An excerpt: (§2) The two-plasmid bacterial CRISPRi system pdCas9-bacteria_GNE and PGNRNA-bacteria_GNE are based on the AddGene plasmids 44249 and 44251 ([73]), respectively. The plasmid was synthesized in smaller DNA fragments (500 bp to 3 kb) (IDT gBlocks) and assembled by Gibson assembly (NEB) according to the manufacturer’s protocols. Plasmids were confirmed by sequencing (ELIM Bio). gRNAs were designed to target the 5′ end of the gene on the nontemplate strand using Benchling CRISPR software ([74]). gRNAs were cloned into PGNRNA-bacteria using Gibson assembly (NEB) according to the manufacturer’s protocols and sequence confirmed (ELIM Bio).
(§3) Bacterial cultures were grown overnight on LB agar supplemented with carbenicillin (50 μg/ml) and chloramphenicol (12.5 μg/ml) to maintain both plasmids, pdCas9-bacteria and PGNRNA-bacteria with each gRNA as appropriate. Cells were scraped from the plate into fresh medium. The OD600 was measured, and the culture was subsequently diluted to an OD600 0.001 in the presence or absence of G2824, globomycin, or ciprofloxacin. Two hundred microliters was transferred to a 96-well plate (Corning) and monitored for growth by measuring the OD600 (EnVision multimode plate reader; PerkinElmer). All treatments were performed in triplicates. The specificity of CRISPRi downregulation was measured using reverse transcriptase quantitative PCR (RT-qPCR).

The subject of assay [5] is BW25113 cells, lspA gRNA. The assay is described as follows: CRISPRi knockdown sensitization, lspA gRNA. The class given is cell-based, E. coli. The settings on record: 2 μM G2824, 0.05 μM globomycin or 0.016 μM ciprofloxacin; OD600 relative to untreated, versus scr or folA gRNA.
From the text: as §2, §3

Assay [6] deals with Lgt. The experiment in a line: Lgt-dependent diacylglyceryl modification of peptide substrate (MS, SDS-PAGE). The class given is biochemical, E. coli.

In brackets after ≈: the same amount, converted by molar mass. Where only a bound is given, the exact number is not on record here.

A word on the MIC: it is the smallest concentration in the dilution series that meets the test's criterion for growth inhibition. Low values mean inhibition by little substance, high ones a need for much substance. Consider `CCn1cc(C(=O)O)c(=O)c2cc(F)c(N3CCNCC3)cc21` [Norfloxacin], for which the MIC in assay [1] (Escherichia coli) turned out to be 0.4 µM (≈ 0.128 µg/mL); in assay [2] (Escherichia coli), 0.2 µM (≈ 0.0639 µg/mL); in assay [3], 0.6 µM (≈ 0.192 µg/mL).

Regarding `Cc1onc(-c2ccccc2)c1C(=O)N[C@@H]1C(=O)N2[C@@H]1SC(C)(C)[C@@H]2C(=O)O` [Oxacillin], the MIC is above 100 µM in assay [1] (Escherichia coli), 12.5 µM (≈ 5.02 µg/mL) in assay [2] (Escherichia coli) and above 100 µM in assay [3].

With `CC1(C)S[C@@H]2[C@H](NC(=O)Cc3ccccc3)C(=O)N2[C@H]1C(=O)O` [Penicillin G], the MIC is above 50 µM in assay [1] (Escherichia coli), 0.8 µM (≈ 0.268 µg/mL) in assay [2] (Escherichia coli) and above 50 µM in assay [3].

Regarding `CO[C@H]1/C=C/O[C@@]2(C)Oc3c(C)c(O)c4c(O)c(cc(O)c4c3C2=O)NC(=O)/C(C)=C\C=C\[C@H](C)[C@H](O)[C@@H](C)[C@@H](O)[C@@H](C)[C@H](OC(C)=O)[C@@H]1C` [Rifamycin], the results for the MIC in assay [1] (Escherichia coli) and in assay [2] (Escherichia coli) were 6.3 µM (≈ 4.4 µg/mL) and 0.8 µM (≈ 0.558 µg/mL), respectively.

In the case of `Cc1c(N)nc([C@H](CC(N)=O)NC[C@H](N)C(N)=O)nc1C(=O)N[C@H](C(=O)N[C@H](C)[C@@H](O)[C@H](C)C(=O)N[C@H](C(=O)NCCC1=N[C@@H](c2nc(C(=O)NCCCCN=C(N)N)cs2)CS1)[C@@H](C)O)[C@@H](O[C@@H]1O[C@@H](CO)[C@@H](O)[C@H](O)[C@@H]1O[C@H]1O[C@H](CO)[C@@H](O)[C@H](OC(N)=O)[C@@H]1O)c1cnc[nH]1` [Zeocin], the MIC came out at 12.5 µM (≈ 17.8 µg/mL) in assay [1] and 0.8 µM (≈ 1.14 µg/mL) in assay [2] (CFT073 Δlgt, Lgt 0.25% Ara (low Lgt level), average of two independent experiments, each in duplicates, CLSI).

For the compound `O=C(O)c1cn(C2CC2)c2cc(N3CCNCC3)c(F)cc2c1=O` [ciprofloxacin], the “sensitization by decreased lgt expression” value in assay [4] was “did not lead to increased sensitivity”. Also, the “sensitization by decreased lspA expression” value in assay [5] was “did not lead to increased sensitivity”.

Turning to “MQLNKVLKGLMIALPVMAIAACSSNKN [Pal-IAAC, peptide substrate derived from the Pal lipoprotein]”, in assay [6] (SDS-PAGE, Coomassie blue), the “diacylglyceryl modification by SDS-PAGE” value is reported as “is Lgt dependent”. Also, in assay [6] (mass spectrometry, Lgt dependent), the “diacylglyceryl modification, mass addition” value was determined as 552 Da.
